Laboratory results published in EP0359062B1, “Antibiotic GE 2270” (priority 1988, dated 1990).

System: Enterococcus faecalis strain L 149
Assay: Bactericidal activity, time-kill curves
Assay type: cell-based
Settings: 8 mg/I, in 48 h; inoculum 1.4 x 10^7 CFU/ml
Procedure: Time-kill curves were run in 10 ml of Todd-Hewitt broth in 100 ml Erlenmeyer flasks, incubated at 37°C without agitation. A logarithmically growing culture of Enterococcus faecalis strain L 149 was inoculated at 1.4 x 10^7 CFU/ml.
The reference antibiotic (teicoplanin, 8 mg/I) killed 99% of the infecting bacteria in 48 h, while antibiotic GE 2270 factor A (0.13 mg/I) killed 99.8% of the bacteria within 2 h and 99.99% within 48 h at this dose or within 24 h at 4 mg/I.

teicoplanin
killed bacteria: 99%
